26 compounds from patent EP2951180B1, “2,6,7,8 SUBSTITUTED PURINES AS HDM2 INHIBITORS” (Merck Sharp & Dohme Corp., priority 2013, dated 2014) can be followed below.

The assay deals with T1, HDM2 (Homo sapiens, UniProt Q00987).
T1 construct: Thioredoxin (N); made in house; host or cells: E. coli strain BL21(DE3)Rosetta
The assay is described as follows: HDM2 FRET assay (inhibition of binding of FITC labeled p53-pocket peptide to HDM2). Put shortly:
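Compounds were tested in 10-point serial dilution against 0.5 nM recombinant HDM2 binding 3 nM fluorescein-labeled p53-pocket peptide. Detection used 0.25 nM terbium cryptate anti-6xHis antibody in PBS buffer containing 0.01% BSA and 0.01% Tween-20.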

The mark [1] stands for this setting: 0.5 nM HDM2 (residues 17 to 125), 3nM peptide, two hour incubation at room temperature, read-out: FRET IC50.

Where two headings read alike, the source gives them in different places.

T1 sequence (Q00987 17-125): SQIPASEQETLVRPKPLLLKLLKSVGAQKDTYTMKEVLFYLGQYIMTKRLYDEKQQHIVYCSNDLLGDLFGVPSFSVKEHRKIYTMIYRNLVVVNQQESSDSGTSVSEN

For the compound `C#CCC1CN(c2nc3nc(C(=O)O)nc(N[C@H](C)C4CCC4)c3n2Cc2ccc(C(F)(F)F)cc2)CCO1` (stereo partly drawn) [Example 9.26, 6-{[(1R)-1-cyclobutylethyl]amino}-8-(2-prop-2-yn-1-ylmorpholin-4-yl)-7-[4-(trifluoromethyl)benzyl]-7H-purine-2-carboxylic acid], under “Table 9, read-out: FRET IC50”, the IC50 (as a rule, the concentration needed to halve the response being measured) is 0.0342 µM.

With `CC(C)C(O)c1nc2nc(-c3noc(=O)[nH]3)nc(N[C@H](C)C3CCC3)c2n1C[C@H]1CC[C@H](C)CC1` (stereo partly drawn) [Example 22.48, 3-(6-{[(1R)-1-cyclobutylethyl]amino}-8-(1-hydroxy-2-methylpropyl)-7-[(trans-4-methylcyclohexyl)methyl] -7H-purin-2-yl)-1,2,4-oxadiazol-5(4H)-one], the IC50 (Table 22, read-out: FRET IC50) is 0.0302 µM.

For `C[C@@H]1COC[C@@H](C)N1c1nc2nc(-c3noc(=O)[nH]3)nc(N[C@H](C)C3CCC3)c2n1C[C@H]1CC[C@H](C)CC1` [Example 11.129, 3-(6-{[(1R)-1-cyclobutylethyl]amino}-8-[(3R,5R)-3,5-dimethylmorpholin-4-yl]-7-[(trans-4-methylcyclohexyl)methyl]-7H-purin-2-yl)-1,2,4-oxadiazol-5(4H)-one], where the note is “Table 11, read-out: FRET IC50”, the IC50 was 0.000788 µM.

Take `C[C@@H]1OCCN(c2nc3nc(-c4noc(=O)[nH]4)nc(-c4cncc(Cl)c4)c3n2C[C@H]2CC[C@H](C)CC2)[C@@H]1c1ccccc1` [Example 16.129, 3-{6-(5-chloropyridin-3-yl)-7-[(trans-4-methylcyclohexyl)methyl]-8-[(2S,3R)-2-methyl-3-phenylmorpholin-4-yl]-7H-purin-2-yl}-1,2,4-oxadiazol-5(4H)-one]: the IC50 under setting [1] was found to be 0.0219 µM.

Regarding `CC[C@H](Nc1nc2nc(-c3n[nH]c(=O)o3)nc(-c3cccc(Cl)c3)c2n1C[C@H]1CC[C@H](C)CC1)c1ccccc1` [Example 16.61, 5-[6-(3-chlorophenyl)-7-[(trans-4-methylcyclohexyl)methyl]-8-{[(1S)-1-phenylpropyl]amino} -7H-purin-2-yl]-1,3,4-oxadiazol-2(3H)-one], the IC50 under setting [1] was 0.00967 µM.

For the compound `C[C@H]1CC[C@H](Cn2c(N3CCO[C@H]4CCC[C@@H]43)nc3nc(-c4noc(=O)[nH]4)nc(-c4cccc(Cl)c4)c32)CC1` [Example 16.81, 3-{6-(3-chlorophenyl)-8-[(4aS,7aS)-hexahydrocyclopenta [b][1,4]oxazin-4(4aH)-yl]-7-[(trans-4-methylcyclohexyl)methyl]-7H-purin-2-yl}-1,2,4-oxadiazol-5(4H)-one], the IC50 under setting [1] was found to be 0.105 µM.

`CC([C@H]1CC[C@H](C)CC1)n1c(N2CCOC[C@H]2C)nc2nc(-c3noc(=O)[nH]3)nc(N[C@H](C)C3CCC3)c21` (single isomer, unassigned) [Example 18.13]: the IC50 (Table 18, read-out: FRET IC50) came to 0.00227 µM.

Turning to `Cc1nonc1CNc1nc2nc(-c3noc(=O)[nH]3)nc(N[C@H](C)C3CCC3)c2n1C[C@H]1CC[C@H](C)CC1` [Example 11.111, 3-(6-{[(1R)-1-cyclobutylethyl]amino}-7-[(trans-4-methylcyclohexyl)methyl]-8-{[(4-methyl-1,2,5-oxadiazol-3-yl)methyl]amino}-7H-purin-2-yl)-1,2,4-oxadiazol-5(2H)-one], under “Table 11, read-out: FRET IC50”, the concentration for half-maximal inhibition (IC50) turned out to be 0.00634 µM.

`C[C@@H](Nc1nc(-c2noc(=O)[nH]2)nc2nc(N(C)C3CCc4ccccc43)n(Cc3ccc(C(F)(F)F)cc3)c12)C1CCC1` (stereo partly drawn) [Example 9.102, 3-(6-{[(1R)-1-cyclobutylethyl]amino}-8-[2,3-dihydro-1H-inden-1-yl(methyl)amino]-7-[4-(trifluoromethyl)benzyl]-7H-purin-2-yl)-1,2,4-oxadiazol-5(4H)-one]: the IC50 (Table 9, read-out: FRET IC50) turned out to be 0.0607 µM.

For `Cc1cccc(-c2nc3nc(C(=O)O)nc(NC4CCCC4C)c3n2Cc2ccc(C(F)(F)F)cc2)c1` (centres unmarked) [Example 6.21, 6-[(2-methylcyclopentyl)amino]-8-(3-methylphenyl)-7-[4-(trifluoromethyl)benzyl]-7H-purine-2-carboxylic acid], the IC50 (Table 6, read-out: FRET IC50) is 0.422 µM.

Regarding `C[C@H]1CC[C@H](Cn2c(C(=O)c3ccccc3)nc3nc(-c4noc(=O)[nH]4)nc(-c4cccc(Cl)c4)c32)CC1` [Example 23.43, 3-[6-(3-chlorophenyl)-7-[(trans-4-methylcyclohexyl)methyl]-8-(phenylcarbonyl)-7H-purin-2-yl]-1,2,4-oxadiazol-5(4H)-one], the IC50 (Table 23, read-out: FRET IC50) worked out at 0.0727 µM.

With `C[C@@H](Nc1nc(-c2noc(=O)[nH]2)nc2nc(C(C)(O)c3cscn3)n(C[C@H]3CC[C@H](C)CC3)c12)C1CCC1` (stereo partly drawn) [Example 22.50, 3-(6-{[(1R)-1-cyclobutylethyl]amino}-8-[1-hydroxy-1-(1,3-thiazol-4-yl)ethyl]-7-[(trans-4-methylcyclohexyl)methyl] -7H-purin-2-yl)-1,2,4-oxadiazol-5(4H)-one], under “Table 22, read-out: FRET IC50”, the IC50 came to 0.0103 µM.

As to `C[C@H]1CC[C@H](Cn2c(N3CCOC[C@H]3CF)nc3nc(-c4noc(=O)[nH]4)nc(-c4cccc(Cl)c4)c32)CC1` [Example 16.137, 3-{6-(3-chlorophenyl)-8-[(3S)-3-(fluoromethyl)morpholin-4-yl]-7-[(trans-4-methylcyclohexyl)methyl]-7H-purin-2-yl}-1,2,4-oxadiazol-5(4H)-one], the half-maximal inhibitory concentration (IC50) under setting [1] turned out to be 0.0119 µM.

In the case of `C[C@@H](Nc1nc(C(=O)O)nc2nc(N3C4CCCC3CC4)n(C[C@H]3CC[C@H](C)CC3)c12)C1CCC1` [Example 11.26, 8-(8-azabicyclo[3.2.1]oct-8-yl)-6-{[(1R)-1-cyclobutylethyl]amino}-7-[(trans-4-methylcyclohexyl)methyl]-7H-purine-2-carboxylic acid], where the note is “FRET IC50”, the IC50 stood at 0.00357 µM.

For `C[C@H]1CC[C@H](Cn2c(C3(c4ccccc4)CCC3)nc3nc(-c4n[nH]c(=O)o4)nc(-c4cncc(Cl)c4)c32)CC1` [Example 20.12, 5-[6-(5-chloropyridin-3-yl)-7-[(trans-4-methylcyclohexyl)methyl]-8-(1-phenylcyclobutyl)-7H-purin-2-yl]-1,3,4-oxadiazol-2(3H)-one], the IC50 (Table 20, read-out: FRET IC50) was found to be 0.00959 µM.

In the case of `CC[C@H](Nc1nc(C(=O)O)nc2nc(-c3cc(C(C)C)ccn3)n(Cc3ccc(C(F)(F)F)cc3)c12)C1CCC1` [Example 6.54, 6-{[(1S)-1-cyclobutylpropyl]amino}-8-[4-(1-methylethyl)pyridin-2-yl]-7-[4-(trifluoromethyl)benzyl]-7H-purine-2-carboxylic acid], under “Table 6, read-out: FRET IC50”, the IC50 turned out to be 0.203 µM.

Regarding `CS(=O)(=O)c1cc(Cl)cc(-c2nc(-c3noc(=O)[nH]3)nc3nc(N4CCOC[C@H]4c4ccccc4)n(C[C@H]4CC[C@H](C)CC4)c23)c1` [Example 16.111, 3-{6-[3-chloro-5-(methylsulfonyl)phenyl]-7-[(trans-4-methylcyclohexyl)methyl]-8-[(3R)-3-phenylmorpholin-4-yl]-7H-purin-2-yl}-1,2,4-oxadiazol-5(4H)-one], the IC50 under setting [1] is 0.0029 µM.

Regarding `C[C@H]1CC[C@H](Cn2c(C3CC3)nc3nc(-c4n[nH]c(=O)o4)nc(-c4cccc(Cl)c4)c32)CC1` [Example 24.1, 5-{6-(3-chlorophenyl)-8-cyclopropyl-7-[(trans-4-methylcyclohexyl)methyl]-7H-purin-2-yl}-1,3,4-oxadiazol-2(3H)-one], the IC50 under setting [1] was determined as 0.0628 µM.

Consider `C[C@@H](Nc1nc(C(=O)O)nc2nc(N3CCCC3c3ccccc3)n(Cc3ccc(C(F)(F)F)cc3)c12)C1CCC1` (single isomer, unassigned) [Example 9.65], for which the IC50 (Table 9, read-out: FRET IC50) turned out to be 0.0114 µM.

Take `C[C@@H](Nc1nc(C(=O)O)nc2nc(-c3cc(C4CCC4)ccn3)n(C[C@H]3CC[C@H](C)CC3)c12)C1CCC1` [Example 15.18, 6-{[(1R)-1-cyclobutylethyl]amino}-8-(4-cyclobutylpyridin-2-yl)-7-[(trans-4-methylcyclohexyl)methyl]-7H-purine-2-carboxylic acid]: under setting [1], the concentration for half-maximal inhibition (IC50) amounted to 0.0018 µM.

In the case of `C[C@@H](Nc1nc(C(=O)O)nc2nc(NC(=O)c3ccccc3)n(Cc3ccc(C(F)(F)F)cc3)c12)C1CCC1` [Example 9.38], the IC50 (Table 9, read-out: FRET IC50) was determined as 0.657 µM.

`CC[C@@H](C)Nc1nc(C(=O)O)nc2nc(-c3cccc(C)c3)n(Cc3ccc(C(F)(F)F)cc3)c12` [Example 6.60, 8-(3-methylphenyl)-6-{[(1R)-1-methylpropyl]amino}-7-[4-(trifluoromethyl)benzyl]-7H-purine-2-carboxylic acid]: the IC50 (Table 6, read-out: FRET IC50) came to 0.583 µM.

As to `C[C@H]1CC[C@H](Cn2c(N3CCOC[C@H]3c3ccccc3)nc3nc(-c4noc(=O)[nH]4)nc(-c4ccc(F)c(Cl)c4)c32)CC1` [Example 16.24, 3-{6-(3-chloro-4-fluorophenyl)-7-[(trans-4-methylcyclohexyl)methyl]-8-[(3R)-3-phenylmorpholin-4-yl]-7H-purin-2-yl}-1,2,4-oxadiazol-5(4H)-one], the IC50 under setting [1] worked out at 0.00562 µM.

As for `C[C@@H](Nc1nc(-c2noc(=O)[nH]2)nc2nc(N3CCC[C@H]3c3nnnn3C)n(C[C@H]3CC[C@H](C)CC3)c12)C1CCC1` [Example 11.110, 3-(6-{[(1R)-1-cyclobutylethyl]amino}-7-[(trans-4-methylcyclohexyl)methyl]-8-[(2S)-2-(1-methyl-1H-tetrazol-5-yl)pyrrolidin-1-yl]-7H-purin-2-yl)-1,2,4-oxadiazol-5(2H)-one], the IC50 (Table 11, read-out: FRET IC50) stood at 0.00676 µM.

With `C[C@@H](Nc1nc(-c2noc(=O)[nH]2)nc2nc(N(C)Cc3cncs3)n(C[C@H]3CC[C@H](C)CC3)c12)C1CCC1` [Example 11.73, 3-(6-{[(1R)-1-cyclobutylethyl]amino}-7-[(trans-4-methylcyclohexyl)methyl]-8-[methyl(1,3-thiazol-5-ylmethyl)amino]-7H-purin-2-yl)-1,2,4-oxadiazol-5(2H)-one], the IC50 (Table 11, read-out: FRET IC50) was determined as 0.0115 µM.

`CC(C)CNC(=O)c1nc2nc(C(=O)O)nc(N[C@H](C)C3CCC3)c2n1Cc1ccc(C(F)(F)F)cc1` [Example 10.16, (R)-6-((1-Cyclobutylethyl)amino)-8-(isobutylcarbamoyl)-7-(4-(trifluoromethyl)benzyl)-7H-purine-2-carboxylic acid]: the IC50 (Table 10, read-out: FRET IC50) is 0.037 µM.
